Data published in patent US20260176320A1, “MODULATORS OF G-PROTEIN COUPLED RECEPTORS” (priority 2018, published 2026).
Like-named read-outs stand apart in the source and are kept apart here.

Columns and labels:
GLP-1R [1] = target: T1, GLP-1R (Homo sapiens, UniProt P43220); assay: HitHunter cAMP assay (GLP-1R); format: cell-based; conditions: cAMP; for Emax: read-out: (Emax) GLP-1R; for EC50: read-out: EC50 GLP-1R/nM
Outline: (§1)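 cAMP accumulation read by luminescent HitHunter immunocompetition after 30 min room-temperature agonist stimulation. Agonists tested as 22-point twofold dilutions, in duplicate, on 10,000 cells/well in HBSS containing 625 μM IBMX, 10 mM HEPES and 0.2% BSA.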

GLP-1R [2] = target: T1, GLP-1R; assay: PathHunter β-arrestin assay; format: cell-based; conditions: PathHunter β-arrestin assay; read-out: β-arrestin activity EC50
Outline: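 β-Arrestin recruitment measured by PathHunter enzyme-fragment luminescence, read after 3 h dark incubation at room temperature with detection solution. Beforehand, agonist in a 22-point 2-fold series was applied in duplicate for 90 min at 37 °C to 5,000 cells/well in BSA-containing (0.2%) medium.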

GIP-R = target: T2, GIP-R (Homo sapiens, UniProt P48546); assay: HitHunter cAMP assay (GIP-R); format: cell-based; conditions: cAMP; for Emax: read-out: (Emax) GIP-R; for EC50: read-out: EC50 GIP-R/nM
T2 sequence (P48546 22-466): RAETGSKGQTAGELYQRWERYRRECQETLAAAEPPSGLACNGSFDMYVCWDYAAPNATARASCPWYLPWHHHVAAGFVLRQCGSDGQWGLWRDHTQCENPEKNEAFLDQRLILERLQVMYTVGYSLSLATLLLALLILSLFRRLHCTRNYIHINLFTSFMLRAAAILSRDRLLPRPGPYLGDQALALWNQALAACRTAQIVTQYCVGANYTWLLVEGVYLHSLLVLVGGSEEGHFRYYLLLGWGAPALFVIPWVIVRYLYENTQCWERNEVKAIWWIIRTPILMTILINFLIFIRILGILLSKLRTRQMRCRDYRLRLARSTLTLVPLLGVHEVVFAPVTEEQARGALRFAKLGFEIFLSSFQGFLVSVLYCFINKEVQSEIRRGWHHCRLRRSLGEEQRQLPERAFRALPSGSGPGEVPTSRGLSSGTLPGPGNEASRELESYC
Outline: as §1

mice = assay: Glucose tolerance test (GTT); format: in vivo, mouse; conditions: 24 h GTT, s.c., dose range 2-5 nmol/kg, percent of vehicle
Outline: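 Compounds diluted in PBS from 1 mM DMSO stocks and given subcutaneously 15 min (5-6 h fast), 4 h (16 h overnight fast), 16 h or 24 h before intraperitoneal glucose (2 g/kg). Tail blood glucose read at 10–120 min post-glucose, at least 6 mice per time-point. Glucose AUC over time determined.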

T1 sequence (P43220 24-463): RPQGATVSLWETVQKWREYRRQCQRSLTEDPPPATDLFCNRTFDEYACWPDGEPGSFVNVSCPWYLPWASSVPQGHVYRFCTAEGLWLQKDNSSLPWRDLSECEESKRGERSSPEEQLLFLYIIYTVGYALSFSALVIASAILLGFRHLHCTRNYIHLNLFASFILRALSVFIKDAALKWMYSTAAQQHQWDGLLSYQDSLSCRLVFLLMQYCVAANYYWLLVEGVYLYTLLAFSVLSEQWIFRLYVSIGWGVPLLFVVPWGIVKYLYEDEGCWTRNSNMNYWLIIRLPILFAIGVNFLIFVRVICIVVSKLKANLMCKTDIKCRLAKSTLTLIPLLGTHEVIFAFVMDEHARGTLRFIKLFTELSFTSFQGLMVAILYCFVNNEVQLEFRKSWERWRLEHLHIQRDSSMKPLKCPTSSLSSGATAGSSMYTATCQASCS

SMILES	Emax (GLP-1R [1]; Table 3)	Emax (GLP-1R [1]; Table 3A)	EC50 (GLP-1R [1]; Table 3A)	EC50 (GLP-1R [2])	Emax (GIP-R; Table 3)	EC50 (GIP-R; Table 3)	Emax (GIP-R; Table 3A)	EC50 (GIP-R; Table 3A)	AUC score (mice)
CCCCCCCCCCCCCCCC(=O)N[C@@H](CCC(=O)NCCCC[C@H](NC(=O)[C@H](CO)NC(=O)[C@@H]1CCCN1C(=O)[C@@H]1CCCN1C(=O)[C@@H]1CCCN1C(=O)[C@H](C)NC(=O)CNC(=O)[C@H](CO)NC(=O)[C@H](CO)NC(=O)[C@@H]1CCCN1C(=O)CNC(=O)CNC(=O)[C@H](C)NC(=O)[C@H](CC(C)C)NC(=O)[C@H](CC(C)C)NC(=O)[C@H](Cc1c[nH]c2ccccc12)NC(=O)[C@H](CC(N)=O)NC(=O)[C@@H](NC(=O)[C@H](Cc1ccccc1)NC(=O)[C@H](CCC(=O)O)NC(=O)C(C)(C)NC(=O)[C@H](C)NC(=O)[C@H](C)NC(=O)[C@H](CCC(N)=O)NC(=O)[C@H](CCCCN)NC(=O)[C@H](CC(=O)O)NC(=O)[C@H](CC(C)C)NC(=O)[C@H](Cc1ccc(O)cc1)NC(=O)[C@@H](NC(=O)[C@H](CO)NC(=O)[C@H](Cc1ccc(O)cc1)NC(=O)[C@H](CC(=O)O)NC(=O)[C@H](CO)NC(=O)[C@@H](NC(=O)[C@H](Cc1ccccc1)NC(=O)[C@@H](NC(=O)CNC(=O)[C@H](CCC(=O)O)NC(=O)CSCC(=O)NCCN1C(=O)CSC1=O)[C@@H](C)O)[C@@H](C)O)[C@@H](C)CC)C(C)C)C(N)=O)C(=O)O [Compound 195]	93 to 113%	93 to 113%	0.1 to 10 nM	> 1000 nM	46 to 87%	0.1 to 10 nM	46 to 87%	0.1 to 10 nM	2 (AUC score 2 = 26-50%)
CCCCCCCCCCCCCCCC(=O)N[C@@H](CCC(=O)NCCCC[C@H](NC(=O)[C@H](CO)NC(=O)[C@@H]1CCCN1C(=O)[C@@H]1CCCN1C(=O)[C@@H]1CCCN1C(=O)[C@H](C)NC(=O)CNC(=O)[C@H](CO)NC(=O)[C@H](CO)NC(=O)[C@@H]1CCCN1C(=O)CNC(=O)CNC(=O)[C@H](C)NC(=O)[C@H](CC(C)C)NC(=O)[C@H](CC(C)C)NC(=O)[C@H](Cc1c[nH]c2ccccc12)NC(=O)[C@H](CC(N)=O)NC(=O)[C@@H](NC(=O)[C@H](Cc1ccccc1)NC(=O)[C@H](CCC(=O)O)NC(=O)C(C)(C)NC(=O)[C@H](C)NC(=O)[C@H](C)NC(=O)[C@H](CCC(N)=O)NC(=O)[C@H](CCCCN)NC(=O)[C@H](CC(=O)O)NC(=O)[C@H](CC(C)C)NC(=O)[C@H](Cc1ccc(O)cc1)NC(=O)[C@@H](NC(=O)[C@H](CO)NC(=O)[C@H](Cc1ccc(O)cc1)NC(=O)[C@H](CC(=O)O)NC(=O)[C@H](CO)NC(=O)[C@@H](NC(=O)[C@H](Cc1ccccc1)NC(=O)[C@@H](NC(=O)CNC(=O)[C@H](CCC(=O)O)NC(=O)CCNC(=O)CN1CCOCC1=O)[C@@H](C)O)[C@@H](C)O)[C@@H](C)CC)C(C)C)C(N)=O)C(=O)O [Compound 233]		96%	< 0.1 nM	10 to 1000 nM			77%	1 to 10 nM	2 (AUC score 2 = 26-50%)
CCCCCCCCCCCCCCCC(=O)N[C@@H](CCC(=O)NCCCC[C@H](NC(=O)[C@H](CO)NC(=O)[C@@H]1CCCN1C(=O)[C@@H]1CCCN1C(=O)[C@@H]1CCCN1C(=O)[C@H](C)NC(=O)CNC(=O)[C@H](CO)NC(=O)[C@H](CO)NC(=O)[C@@H]1CCCN1C(=O)CNC(=O)CNC(=O)[C@H](C)NC(=O)[C@H](CC(C)C)NC(=O)[C@H](CC(C)C)NC(=O)[C@H](Cc1c[nH]c2ccccc12)NC(=O)[C@H](CC(N)=O)NC(=O)[C@@H](NC(=O)[C@H](Cc1ccccc1)NC(=O)[C@H](CCC(=O)O)NC(=O)C(C)(C)NC(=O)[C@H](C)NC(=O)[C@H](C)NC(=O)[C@H](CCC(N)=O)NC(=O)[C@H](CCCCN)NC(=O)[C@H](CC(=O)O)NC(=O)[C@H](CC(C)C)NC(=O)[C@H](Cc1ccc(O)cc1)NC(=O)[C@@H](NC(=O)[C@H](CO)NC(=O)[C@H](Cc1ccc(O)cc1)NC(=O)[C@H](CC(=O)O)NC(=O)[C@H](CO)NC(=O)[C@@H](NC(=O)[C@H](Cc1ccccc1)NC(=O)[C@@H](NC(=O)CNC(=O)[C@H](CCC(=O)O)NC(=O)CCNC(=O)Cn1ccccc1=O)[C@@H](C)O)[C@@H](C)O)[C@@H](C)CC)C(C)C)C(N)=O)C(=O)O [Compound 234]		97%	0.1 to 1 nM	> 1000 nM			76%	1 to 10 nM	3 (AUC score 3 = 51-75%)
